Bounds are passed on as bounds.

The source of these data is patent US9186369B2, “Purine nucleoside analogues for treating flaviviridae including hepatitis C” (Idenix Pharmaceuticals, Inc., priority 2003, dated 2015).

The data set relates to MDK. Kind of data set: Cytotoxicity assay (sulforhodamine staining, CC50). The data set is classed as cell-based. The conditions noted are these: MDK cells; 4 days incubation; concentration reducing cell number by 50%; preliminary results. The protocol: Cells are seeded at a rate of between 5×10^3 and 5×10^4/well into 96-well plates in growth medium overnight at 37° C. in a humidified CO2 (5%) atmosphere. New growth medium containing serial dilutions of the drugs is then added. After incubation for 4 days, cultures are fixed in 50% TCA and stained with sulforhodamine. The optical density was read at 550 nm. The cytotoxic concentration was expressed as the concentration required to reduce the cell number by 50% (CC50).

`C[C@]1(CO)O[C@@H](n2cnc3c(N)ncnc32)[C@H](O)[C@@H]1O` [β-D-4′-CH3-riboA]: the cytotoxic concentration (CC50) was above 250 µM. Under `C[C@]1(CO)O[C@@H](n2cnc3c(=O)[nH]c(N)nc32)[C@H](O)[C@@H]1O` [β-D-4′-CH3-riboG] stands above 250 µM; under `CC1(CO)OC(n2cc(F)c(=O)[nH]c2=O)C(O)C1O` [β-D-4′-CH3-ribo-5-fluoroU], above 167 µM.

For the compound `C[C@]1(CO)O[C@@H](n2ccc(N)nc2=O)[C@H](O)[C@@H]1O` [β-D-4′-CH3-riboC], the half-maximal cytotoxic concentration (CC50) is above 250 µM. Compound `Cc1cn([C@@H]2O[C@](C)(CO)[C@@H](O)[C@H]2O)c(=O)[nH]c1=O` [β-D-4′-CH3-riboT] came in with a 50% cytotoxic concentration (CC50) above 250 µM.

`C[C@]1(CO)O[C@@H](n2ccc(=S)[nH]c2=O)[C@H](O)[C@@H]1O` [β-D-4′-CH3-ribo-4-thioU] had a CC50 above 250 µM.
